In patent US8975406B2, “Compound useful for the treatment of degenerative and inflammatory diseases” (Galapagos N.V., priority 2011, dated 2015):

Assays:
Type in all cases: biochemical
[1] = target: T1, Recombinant human JAK1 catalytic domain (Homo sapiens, UniProt P23458); test: JAK1 assay polyGT substrate; settings: 33P-gamma-ATP filter assay, 2 μM ATP
T1 construct: catalytic domain (amino acids 866-1154; catalog number PV4774); purchased Invitrogen PV4774
Procedure: Recombinant human JAK1 catalytic domain (amino acids 866-1154; catalog number PV4774) was purchased from Invitrogen. 25 ng of JAK1 was incubated with 6.25 μg polyGT substrate (Sigma catalog number P0275) in kinase reaction buffer (15 mM Hepes pH7.5, 0.01% Tween20, 10 mM MgCl2, 2 μM non-radioactive ATP, 0.25 μCi ^33P-gamma-ATP (Perkin Elmer, catalog number NEG602K001MC) final concentrations) with or without 5 μL containing test compound or vehicle (DMSO, 1% final concentration), in a total volume of 25 μL, in a polypropylene 96-well plate (Greiner, V-bottom). After 75 min at 30° C., reactions were stopped by adding of 25 μL/well of 150 mM phosphoric acid. All of the terminated kinase reaction was transferred to prewashed (75 mM phosphoric acid) 96 well filter plates (Perkin Elmer catalog number 6005177) using a cell harvester (Perkin Elmer). Plates were washed 6 times with 300 μL per well of a 75 mM phosphoric acid solution and the bottom of the plates was sealed. 40 μL/well of Microscint-20 was added, the top of the plates was sealed and readout was performed using the Topcount (Perkin Elmer). Kinase activity was calculated by subtracting counts per min (cpm) obtained in the presence of a positive control inhibitor (10 μM staurosporine) from cpm obtained in the presence of vehicle. The ability of a test compound to inhibit this activity was determined as: Percentage inhibition=((cpm determined for sample with test compound present−cpm determined for sample with positive control inhibitor)divided by(cpm determined in the presence of vehicle−cpm determined for sample with positive control inhibitor))*100.
(§1) Dose dilution series were prepared for the compounds enabling the testing of dose-response effects in the JAK1 assay and the calculation of the IC50 for each compound. Each compound was routinely tested at concentration of 20 μM followed by a ⅓ serial dilution, 8 points (20 μM-6.67 μM-2.22 μM-740 nM-247 nM-82 nM-27 nM-9 nM) in a final concentration of 1% DMSO. When potency of compound series increased, more dilutions were prepared and/or the top concentration was lowered (e.g. 5 μM, 1 μM).

[2] = target: T2, Recombinant human JAK2 catalytic domain (Homo sapiens, UniProt O60674); test: JAK2 assay polyGT substrate; settings: 33P-gamma-ATP filter assay, 1 μM ATP
T2 construct: catalytic domain (amino acids 808-1132; catalog number PV4210); GST; purchased Invitrogen PV4210
Procedure: Recombinant human JAK2 catalytic domain (amino acids 808-1132; catalog number PV4210) was purchased from Invitrogen. 0.05 mU of JAK2 was incubated with 2.5 μg polyGT substrate (Sigma catalog number P0275) in kinase reaction buffer (10 mM MOPS pH 7.5, 0.5 mM EDTA, 0.01% Brij-35, 1 mM DTT, 15 mM MgAc, 1 μM non-radioactive ATP, 0.25 μCi ^33P-gamma-ATP (Perkin Elmer, catalog number NEG602K001MC) final concentrations) with or without 5 μL containing test compound or vehicle (DMSO, 1% final concentration), in a total volume of 25 μL, in a polypropylene 96-well plate (Greiner, V-bottom). After 90 min at 30° C., reactions were stopped by adding of 25 μL/well of 150 mM phosphoric acid. All of the terminated kinase reaction was transferred to prewashed (75 mM phosphoric acid) 96 well filter plates (Perkin Elmer catalog number 6005177) using a cell harvester (Perkin Elmer). Plates were washed 6 times with 300 μL per well of a 75 mM phosphoric acid solution and the bottom of the plates was sealed. 40 μL/well of Microscint-20 was added, the top of the plates was sealed and readout was performed using the Topcount (Perkin Elmer). Kinase activity was calculated by subtracting counts per min (cpm) obtained in the presence of a positive control inhibitor (10 μM staurosporine) from cpm obtained in the presence of vehicle. The ability of a test compound to inhibit this activity was determined as: Percentage inhibition=((cpm determined for sample with test compound present−cpm determined for sample with positive control inhibitor)divided by(cpm determined in the presence of vehicle−cpm determined for sample with positive control inhibitor))*100.
as §1, with “JAK2” for “JAK1”

JAK3 = target: T3, JAK3 (Homo sapiens, UniProt P52333); test: JAK3 Ki determination assay; settings: Lineweaver-Burk plot, polyGT substrate, varying ATP
T3 construct: catalytic domain (amino acids 795-1124; catalog number 08-046); purchased Carna Biosciences 08-046
Procedure: For the determination of Ki, different amounts of compound are mixed with the enzyme and the enzymatic reaction is followed as a function of ATP concentration. The Ki is determined by means of double reciprocal plotting of Km vs compound concentration (Lineweaver-Burk plot). JAK3 (Carna Biosciences, 08-046) was used at a final concentration of 20 ng/ml. The substrate was Poly(Glu,Tyr)sodium salt (4:1), MW 20 000-50 000 (Sigma, P0275) The reaction was performed in 25 mM Tris pH 7.5, 0.01% Triton X-100, 0.5 mM EGTA, 2.5 mM DTT, 0.5 mM Na3VO4, 5 mM b-glycerolphosphate, 10 mM MgCl2 with varying concentrations of ATP and compound and stopped by addition of 150 mM phosphoric acid. Measurement of incorporated phosphate into the substrate polyGT was done by loading the samples on a filter plate (using a harvester, Perkin Elmer) and subsequent washing. Incorporated ^33P in polyGT is measured in a Topcount scintillation counter after addition of scintillation liquid to the filter plates (Perkin Elmer).

T1 sequence (P23458 866-1154): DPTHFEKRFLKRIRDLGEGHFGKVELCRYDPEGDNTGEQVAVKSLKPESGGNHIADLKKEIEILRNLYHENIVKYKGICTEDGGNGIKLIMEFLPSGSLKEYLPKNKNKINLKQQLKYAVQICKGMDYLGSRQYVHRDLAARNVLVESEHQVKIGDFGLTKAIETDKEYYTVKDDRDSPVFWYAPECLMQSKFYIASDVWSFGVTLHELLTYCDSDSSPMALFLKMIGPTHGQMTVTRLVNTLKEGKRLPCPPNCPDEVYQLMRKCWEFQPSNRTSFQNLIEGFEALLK
T2 sequence (O60674 808-1132): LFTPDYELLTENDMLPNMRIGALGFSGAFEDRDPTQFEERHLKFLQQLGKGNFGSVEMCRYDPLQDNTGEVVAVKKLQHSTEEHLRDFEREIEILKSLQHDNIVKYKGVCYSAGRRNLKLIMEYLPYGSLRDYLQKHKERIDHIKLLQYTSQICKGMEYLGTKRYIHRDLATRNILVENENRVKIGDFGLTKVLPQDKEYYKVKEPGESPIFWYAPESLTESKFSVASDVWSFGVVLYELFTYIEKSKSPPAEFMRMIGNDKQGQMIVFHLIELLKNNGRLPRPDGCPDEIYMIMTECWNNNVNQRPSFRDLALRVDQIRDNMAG
T3 sequence (P52333 795-1124): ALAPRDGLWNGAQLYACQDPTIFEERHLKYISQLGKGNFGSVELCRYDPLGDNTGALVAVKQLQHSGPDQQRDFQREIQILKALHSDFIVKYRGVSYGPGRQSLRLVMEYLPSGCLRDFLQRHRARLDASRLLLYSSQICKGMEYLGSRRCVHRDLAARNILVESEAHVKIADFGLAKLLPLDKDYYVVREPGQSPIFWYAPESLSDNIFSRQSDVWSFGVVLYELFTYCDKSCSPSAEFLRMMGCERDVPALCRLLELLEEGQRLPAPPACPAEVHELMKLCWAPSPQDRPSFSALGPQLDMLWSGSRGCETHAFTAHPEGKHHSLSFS

Structure (SMILES)	IC50 [1]	IC50 [2]	Ki (JAK3)
COc1ccc(-c2cccn3nc(NC(=O)C4CC4)cc23)cc1 [Compound 1, N-(4-(4-methoxyphenyl)pyrazolo[1,5-a]pyridin-2-yl)cyclopropanecarboxamide]	0.01 to 100 nM	0.01 to 100 nM	–
O=C(Nc1cc2c(-c3ccc(OCc4ccccc4)cc3)cccn2n1)C1CC1 [Compound 2, N-(4-(4-(benzyloxy)phenyl)pyrazolo[1,5-a]pyridin-2-yl)cyclopropanecarboxamide]	0.01 to 100 nM	101 to 500 nM	–
O=C(Nc1cc2c(-c3ccc4c(ccn4Cc4ccccc4)c3)cccn2n1)C1CC1 [Compound 3, N-(4-(1-benzyl-1H-indol-5-yl)pyrazolo[1,5-a]pyridin-2-yl)cyclopropanecarboxamide]	0.01 to 100 nM	101 to 500 nM	–
O=C(Nc1cc2c(-c3ccc4[nH]ccc4c3)cccn2n1)C1CC1 [Compound 4, N-(4-(1H-indol-5-yl)pyrazolo[1,5-a]pyridin-2-yl)cyclopropanecarboxamide]	0.01 to 100 nM	0.01 to 100 nM	–
O=C(NCCc1ccccc1)c1ccc(-c2cccn3nc(NC(=O)C4CC4)cc23)cc1 [Compound 5, 4-(2-(cyclopropanecarboxamido)pyrazolo[1,5-a]pyridin-4-yl)-N-phenethylbenzamide]	0.01 to 100 nM	0.01 to 100 nM	–

The next lines start with the values.

IC50 [1]	IC50 [2]	Ki (JAK3)	Structure (SMILES)
0.01 to 100 nM	0.01 to 100 nM	–	O=C(NCCOc1ccccc1)c1ccc(-c2cccn3nc(NC(=O)C4CC4)cc23)cc1 [Compound 6, 4-(2-(cyclopropanecarboxamido)pyrazolo[1,5-a]pyridin-4-yl)-N-(2-phenoxyethyl)benzamide]
> 1000 nM	> 1000 nM	–	COc1ccc(-c2cccn3nc(NC(=O)C4CC4)c(-c4ccccc4)c23)cc1 [Compound 7, N-(4-(4-methoxyphenyl)-3-phenylpyrazolo[1,5-a]pyridin-2-yl)cyclopropanecarboxamide]
0.01 to 100 nM	0.01 to 100 nM	–	O=C(Nc1cc2c(-c3ccc(OCc4cccnc4)cc3)cccn2n1)C1CC1 [Compound 8, N-(4-(4-(pyridin-3-ylmethoxy)phenyl)pyrazolo[1,5-a]pyridin-2-yl)cyclopropanecarboxamide]
–	–	227 nM	CC(=O)Nc1cc2c(-c3ccc(CN4CCN(S(C)(=O)=O)CC4)c(F)c3)cccn2n1 [Compound 21]
